According to patent US10792289B2 (Horizon Orphan LLC, priority 2009, dated 2020):
Like-named read-outs stand apart in the source and are kept apart here.

System: P. aeruginosa isolates
Assay: Phase 2 study: MIC of P. aeruginosa isolates to levofloxacin
Assay type: cell-based
Conditions: Pseudomonas aeruginosa
Description: Efficacy was evaluated by microbiologic assessment of sputum samples, time to need for anti-pseudomonal antimicrobials, the Cystic Fibrosis Questionaire-Revised (CFQ-R), and pulmonary function tests. […] Pair-wise comparisons between all the treatment arms were conducted as secondary analyses.

For `C[C@H]1COc2c(N3CCN(C)CC3)c(F)cc3c(=O)c(C(=O)O)cn1c23` [Levofloxacin, levofloxacin], the MIC50 (336 h, MITT, combined 240 mg QD and BID, Day 14, read-out: MIC50 (all organisms)) was 4 µg/mL, the MIC90 (336 h, MITT, combined 240 mg QD and BID, Day 14, read-out: MIC90 (all organisms)) was 16 µg/mL and the MIC50 (336 h, Table 14, EE, 120 mg QD, Day 14, read-out: MIC50 (all organisms)) was 8 µg/mL. The MIC90 (336 h, Table 14, EE, 120 mg QD, Day 14, read-out: MIC90 (all organisms)) was 32 µg/mL, the MIC50 (336 h, Table 14, EE, 240 mg BID, Day 14, read-out: MIC50 (all organisms)) was 4 µg/mL and the MIC90 (336 h, Table 14, EE, 240 mg BID, Day 14, read-out: MIC90 (all organisms)) was 32 µg/mL. The MIC50 (336 h, Table 14, EE, 240 mg QD, Day 14, read-out: MIC50 (all organisms)) was 8 µg/mL, the MIC90 (336 h, Table 14, EE, 240 mg QD, Day 14, read-out: MIC90 (all organisms)) was 16 µg/mL and the MIC (336 h, read-out: Highest MIC to levofloxacin, mean (SD), MITT, 120 mg QD, Day 14) was 20.3 µg/mL. For the same compound, the MIC (336 h, read-out: Highest MIC to levofloxacin, mean (SD), MITT, 240 mg BID, Day 14) was 14.9 µg/mL, the MIC (336 h, read-out: Highest MIC to levofloxacin, mean (SD), MITT, 240 mg QD, Day 14) was 9.28 µg/mL and the MIC (336 h, read-out: Highest MIC to levofloxacin, mean (SD), MITT, combined 240 mg QD and BID, Day 14) was 12.1 µg/mL. It also gave an MIC (336 h, read-out: MIC to levofloxacin (all organisms), mean (SD), EE, 120 mg QD, Day 14) of 13 µg/mL, an MIC (336 h, read-out: MIC to levofloxacin (all organisms), mean (SD), EE, 240 mg BID, Day 14) of 8.4 µg/mL and an MIC (336 h, read-out: MIC to levofloxacin (all organisms), mean (SD), EE, 240 mg QD, Day 14) of 6.6 µg/mL. It also gave an MIC (336 h, read-out: MIC to levofloxacin (all organisms), mean (SD), EE, combined 240 mg QD and BID, Day 14) of 7.5 µg/mL, an MIC (336 h, read-out: MIC to levofloxacin (all organisms), mean (SD), MITT, 120 mg QD, Day 14) of 12.9 µg/mL and an MIC (336 h, read-out: MIC to levofloxacin (all organisms), mean (SD), MITT, 240 mg BID, Day 14) of 8.2 µg/mL. For the same compound, the MIC (336 h, read-out: MIC to levofloxacin (all organisms), mean (SD), MITT, 240 mg QD, Day 14) was 6.5 µg/mL, the MIC (336 h, read-out: MIC to levofloxacin (all organisms), mean (SD), MITT, combined 240 mg QD and BID, Day 14) was 7.3 µg/mL and the MIC (336 h, read-out: MIC to levofloxacin (all organisms), mean (SD), Table 14, EE, 120 mg QD, Day 14) was 21.2 µg/mL. The MIC (336 h, read-out: MIC to levofloxacin (all organisms), mean (SD), Table 14, EE, 240 mg BID, Day 14) was 15.2 µg/mL, the MIC (336 h, read-out: MIC to levofloxacin (all organisms), mean (SD), Table 14, EE, 240 mg QD, Day 14) was 9.56 µg/mL and the MIC (336 h, read-out: MIC to levofloxacin (all organisms), mean (SD), Table 14, EE, combined 240 mg QD and BID, Day 14) was 12.3 µg/mL. For the same compound, the MIC50 (672 h, EE and MITT, 120 mg QD, Day 28, read-out: MIC50 for P. aeruginosa isolates) was 8 µg/mL, the MIC90 (672 h, EE and MITT, 120 mg QD, Day 28, read-out: MIC90 for P. aeruginosa isolates) was 32 µg/mL and the MIC50 (672 h, EE and MITT, 240 mg BID, Day 28, read-out: MIC50 for P. aeruginosa isolates) was 8 µg/mL. For the same compound, the MIC90 (672 h, EE and MITT, 240 mg BID, Day 28, read-out: MIC90 for P. aeruginosa isolates) was 32 µg/mL, the MIC50 (672 h, EE and MITT, 240 mg QD, Day 28, read-out: MIC50 for P. aeruginosa isolates) was 8 µg/mL and the MIC90 (672 h, EE and MITT, 240 mg QD, Day 28, read-out: MIC90 for P. aeruginosa isolates) was 16 µg/mL. The MIC50 (672 h, EE, 120 mg QD, Day 28, read-out: MIC50 (all organisms)) was 4 µg/mL, the MIC90 (672 h, EE, 120 mg QD, Day 28, read-out: MIC90 (all organisms)) was 16 µg/mL and the MIC50 (672 h, EE, 240 mg BID, Day 28, read-out: MIC50 (all organisms)) was 4 µg/mL. For the same compound, the MIC90 (672 h, EE, 240 mg BID, Day 28, read-out: MIC90 (all organisms)) was 32 µg/mL, the MIC50 (672 h, EE, 240 mg QD, Day 28, read-out: MIC50 (all organisms)) was 4 µg/mL and the MIC90 (672 h, EE, 240 mg QD, Day 28, read-out: MIC90 (all organisms)) was 16 µg/mL. The MIC50 (672 h, EE, combined 240 mg QD and BID, Day 28, read-out: MIC50 (all organisms)) was 4 µg/mL, the MIC90 (672 h, EE, combined 240 mg QD and BID, Day 28, read-out: MIC90 (all organisms)) was 16 µg/mL and the MIC50 (672 h, MITT, 120 mg QD, Day 28, read-out: Highest MIC, MIC50) was 8 µg/mL. The MIC90 (672 h, MITT, 120 mg QD, Day 28, read-out: Highest MIC, MIC90) was 32 µg/mL, the MIC50 (672 h, MITT, 120 mg QD, Day 28, read-out: MIC50 (all organisms)) was 4 µg/mL and the MIC90 (672 h, MITT, 120 mg QD, Day 28, read-out: MIC90 (all organisms)) was 16 µg/mL. For the same compound, the MIC50 (672 h, MITT, 240 mg BID, Day 28, read-out: Highest MIC, MIC50) was 8 µg/mL, the MIC90 (672 h, MITT, 240 mg BID, Day 28, read-out: Highest MIC, MIC90) was 16 µg/mL and the MIC50 (672 h, MITT, 240 mg BID, Day 28, read-out: MIC50 (all organisms)) was 4 µg/mL. For the same compound, the MIC90 (672 h, MITT, 240 mg BID, Day 28, read-out: MIC90 (all organisms)) was 32 µg/mL, the MIC50 (672 h, MITT, 240 mg QD, Day 28, read-out: Highest MIC, MIC50) was 8 µg/mL and the MIC90 (672 h, MITT, 240 mg QD, Day 28, read-out: Highest MIC, MIC90) was 16 µg/mL. It also gave an MIC50 (672 h, MITT, 240 mg QD, Day 28, read-out: MIC50 (all organisms)) of 4 µg/mL, an MIC90 (672 h, MITT, 240 mg QD, Day 28, read-out: MIC90 (all organisms)) of 16 µg/mL and an MIC50 (672 h, MITT, combined 240 mg QD and BID, Day 28, read-out: Highest MIC, MIC50) of 8 µg/mL.
